Data as given in patent US20160376632A1, “KINASE ACTIVITY DETECTION METHODS” (REGENTS OF THE UNIVERSITY OF MINNESOTA, priority 2014, published 2016).
*1 amine or outer side, *2 acyl side, *3 side chain or, on linkers, in order; H or OH if unused. [ ]: non-standard residue; d: D form. The star is where a group is joined. Kb = biotinyl-L-lysine, O=C(CCCC[C@@H]1SC[C@@H]2NC(=O)N[C@@H]21)NCCCC[C@H](N[*:1])C(=O)[*:2]; 5FAM = O=C1OC2(c3ccc(O)cc3Oc3cc(O)ccc32)c2ccc(C(=O)*)cc21; Ahx = NCCCCCC(=O)O

Experiments:
[1] = Determination of LRET distance from Tb3+ luminescence lifetimes; format: physicochemical; conditions: for Energy Transfer: E from lifetimes; for Ro: Förster distance; for τDA: Tb3+ luminescence lifetime of donor in presence of acceptor fluorophore; for τD: Tb3+ luminescence lifetime of donor without acceptor fluorophore; for R: estimated distance between Tb3+ and fluorophore
From the text: The Tb^3+ luminescence lifetimes of the biosensors in their fluorophore conjugated and unconjugated forms were used to characterize the energy transfer and LRET parameters for each sensor (FIGS. 12A, 12B and 12C). LRET follows the same principles as FRET and can have the same theory applied to calculate the distance between the fluorophore acceptor and the terbium-peptide complex donor pair. The fundamental concept of Förster theory is resonance energy transfer is proportional to
where the percentage of energy transfer, E, can be determined from the lifetime measurements of the donor in the absence of the acceptor (peptide-terbium complex (donor) without the conjugated fluorophore (acceptor)) and the donor in the presence of the acceptor.
R0 the Förster distance is determined for each acceptor/donor pair and d
The luminescence decay rates peptide biosensor-Tb^3+ complexes with and without fluorophore conjugation are illustrated in FIG. 12A pSAStide-AF488:Tb^3+, FIG. 12B pSAStide-Cy5 and FIG. 12C 5-FAM-pSFAStide-A. Data represent the average±SEM of three individual replicates.

Syk = molecular target: T1, Syk (Homo sapiens, UniProt P43405); assay: ELISA-based chemifluorescent detection of substrate phosphorylation, Syk; format: biochemical; conditions: anti-phosphotyrosine 4G10, Amplex Red
T1 construct: EGFP (C)
Description: (§1) Phosphorylation of SAStide and SFAStide-A were detected using a chemifluorescent ELISA-based assay (Lipchik et al. J Am Chem. Soc 2015, 137, 2484) in which the reaction mixture was quenched using EDTA and incubated in a 96-well neutravidin coated-plate to allow for affinity capture of the biotinylated substrates individually. The total amount of peptide in the quenched reaction mixture applied to each well was 37.5 pmol, which ensured that each well was saturated with peptide (15 pmol binding capacity) for analysis. The captured peptide was then incubated an anti-phosphotyrosine primary antibody (4G10) followed by a horseradish peroxidase-conjugated secondary antibody. Chemifluorescent detection was accomplished by incubating each well with Amplex Red reagent and hydrogen peroxide in phosphate buffer, which gave a fluorescent signal proportional to the amount of horseradish peroxidase-conjugated antibody in each well, and thus reports the degree of phosphotyrosine present.
(§2) The Validation of in vitro specificity of SAStide-Cy5 and 5-FAM-SFAStide-A using ELISA-based chemifluorescence is illustrated in FIG. 14. […] Aliquots were removed at designated time points, quenched with EDTA and alongside the TR-LRET detection as described in FIGS. 3A-F in the main text, the amount of phosphorylated substrate was also measured using ELISA-based detection.

Lyn = Lyn (Homo sapiens, UniProt P07948); assay: ELISA-based chemifluorescent detection of substrate phosphorylation, Lyn; format: biochemical; conditions: anti-phosphotyrosine 4G10, Amplex Red
Description: as §1, §2

Lyn, sequence (P07948 whole entry, species assumed): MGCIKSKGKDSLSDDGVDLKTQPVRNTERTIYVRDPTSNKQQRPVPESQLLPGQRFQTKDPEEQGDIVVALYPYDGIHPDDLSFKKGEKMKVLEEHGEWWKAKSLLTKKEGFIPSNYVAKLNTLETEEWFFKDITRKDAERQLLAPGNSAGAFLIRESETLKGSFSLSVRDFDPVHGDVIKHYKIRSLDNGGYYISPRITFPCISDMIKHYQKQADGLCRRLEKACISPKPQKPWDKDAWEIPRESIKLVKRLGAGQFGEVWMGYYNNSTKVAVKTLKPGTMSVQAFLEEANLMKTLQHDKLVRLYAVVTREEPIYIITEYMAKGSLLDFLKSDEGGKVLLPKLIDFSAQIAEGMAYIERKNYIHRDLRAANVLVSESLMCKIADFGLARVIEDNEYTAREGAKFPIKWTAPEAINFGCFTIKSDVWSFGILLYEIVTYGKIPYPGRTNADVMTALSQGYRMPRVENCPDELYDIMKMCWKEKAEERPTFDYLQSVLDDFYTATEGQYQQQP

| phosphorylation of the substrate by Syk in vitro (Syk) | phosphorylation of the substrate by Lyn in vitro (Lyn) | Substance | J [1] | Quantum Yield [1] | Energy Transfer [1] | Ro [1] | τDA [1] | τD [1] | R [1] |
| --- | --- | --- | --- | --- | --- | --- | --- | --- | --- |
| phosphorylated | – | GGDEEDYEEPDEPGGCCy5GG [SAStide-Cy5] | 5.4 × 10^13 M^−1 cm^−1 nm^4 | 0.34 | 0.88 | 55.1 Å | 0.088 ms | 0.72 ms | 39.5 Å |
| – | phosphorylated | 5-FAM-Ahx-GGEEDEDIYEELDEPGGKbGG ({5FAM-Ahx}-GGEEDEDIYEELDEPGG[Kb]GG-NH2) [5-FAM-SFAStide-A, Src-family kinase peptide biosensor labelled with 5-carboxyfluorescein] | 9.62 × 10^14 M^−1 cm^−1 nm^4 | 0.21 | 0.89 | 56.0 Å | 0.071 ms | 0.64 ms | 39.5 Å |
